# Experimental data taken from patent publication US20170037028A1 (BAYER PHARMA AKTIENGESELLSCHAFT, priority 2013, published 2017).
# Target: T1, GLUT1 (Homo sapiens, UniProt P11166)
# T1 sequence (P11166 1-492): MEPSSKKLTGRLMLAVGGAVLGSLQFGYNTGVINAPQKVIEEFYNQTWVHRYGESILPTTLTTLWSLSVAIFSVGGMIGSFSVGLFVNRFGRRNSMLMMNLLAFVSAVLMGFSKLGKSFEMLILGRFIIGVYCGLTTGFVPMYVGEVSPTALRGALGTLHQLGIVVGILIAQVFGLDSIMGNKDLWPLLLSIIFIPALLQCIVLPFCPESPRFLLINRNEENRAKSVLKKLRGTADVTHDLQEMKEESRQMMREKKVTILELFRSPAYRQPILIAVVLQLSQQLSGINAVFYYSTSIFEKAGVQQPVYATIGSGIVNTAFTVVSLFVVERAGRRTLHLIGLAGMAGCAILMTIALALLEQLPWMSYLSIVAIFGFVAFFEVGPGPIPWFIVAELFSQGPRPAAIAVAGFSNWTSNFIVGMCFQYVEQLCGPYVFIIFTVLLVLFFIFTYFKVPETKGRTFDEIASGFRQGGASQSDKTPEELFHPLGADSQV
# Experiment: Indirect measurement of GLUT1 activity by quantification of intracellular ATP levels (glucose induced ATP increase)
# Type: cell-based
# Parameters: endogenous in cells; host or cells: DLD1 or CHO-K1
# Conditions: read-out: IC50 regarding glucose induced ATP increase (GLUT1 inhibition)
# How it was run: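 Intracellular ATP was measured by CellTiter-Glo luminescence as an indirect readout of transport: glucose-driven for GLUT1, fructose-driven for GLUT2. DLD1 or CHO-K1 cells were used alongside an oxidative phosphorylation inhibitor. Beforehand, cells were held overnight in glucose-free 1% FCS medium to deplete ATP.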
row,IC50 [nM],SMILES
1,30.8,Cc1nn(Cc2ccc(C(=O)NCCOc3ccccc3F)cc2)c(C)c1NC(=O)c1cc(C(F)(F)F)nc2ccc(Br)cc12 [Example 1084]
2,3.1,"Cc1nn(Cc2ccc(F)cc2)c(C)c1NC(=O)c1cc(C(N)=O)nc2c(Cl)cc(Cl)cc12 [Example 127, 6,8-dichloro-N^4-[1-(4-fluorobenzyl)-3,5-dimethyl-1H-pyrazol-4-yl]quinoline-2,4-dicarboxamide]"
3,1980,Cc1nn(Cc2ccc(CC(=O)NCCN(C)C)cc2)c(C)c1NC(=O)c1cc(C(F)(F)F)nc2ccc(Br)cc12 [Example 1254]
4,60.7,CCc1nn(Cc2ccc(F)cc2)c(CC)c1NC(=O)c1cc(C(N)=O)nc2cc(F)ccc12 [Example 1385]
5,999,COc1ccc(CNC(=O)c2ccc(Cn3nc(C)c(NC(=O)c4cc(C(F)(F)F)nc5ccc(Br)cc45)c3C)cc2)cc1 [Example 1229]
6,1530,CCc1nn(Cc2ccc(F)cc2)c(CC)c1NC(=O)c1cc(C(F)(F)F)nc2ccc(Br)cc12 [Example 1388]
7,2.3,COc1cc(C#N)ccc1Cn1nc(C(F)(F)F)c(NC(=O)c2cc(C(N)=O)nc3cc(F)ccc23)c1C [Example 1646]
8,572,Cc1ccc(CCNC(=O)c2ccc(Cn3nc(C)c(NC(=O)c4cc(C(F)(F)F)nc5ccc(Br)cc45)c3C)cc2)cc1 [Example 1210]
9,116,Cc1nn(Cc2ccc(C(=O)N(CCO)CCO)cc2)c(C)c1NC(=O)c1cc(C(F)(F)F)nc2ccc(Br)cc12 [Example 1145]
10,0.4,"COc1ccc(Cn2nc(C)c(NC(=O)c3cc(C(N)=O)nc4cc(F)c(F)cc34)c2C)cc1F [Example 236, 6,7-difluoro-N^4-[1-(3-fluoro-4-methoxybenzyl)-3,5-dimethyl-1H-pyrazol-4-yl]quinoline-2,4-dicarboxamide]"
11,419,Cc1nn(Cc2ccc(C#N)cc2)c(C)c1NC(=O)c1cc(S(N)(=O)=O)nc2ccccc12 [Example 1573]
12,70.7,"Cc1nn(Cc2ccc(C(=O)NCCN(C)C)cc2)c(C)c1NC(=O)c1cc(C(F)(F)F)nc2ccc(Br)cc12 [Example 142, 6-bromo-N-[1-(4-{[2-(dimethylamino)ethyl]carbamoyl}benzyl)-3,5-dimethyl-1H-pyrazol-4-yl]-2-(trifluoromethyl)quinoline-4-carboxamide]"
13,747,Cc1nonc1Cn1nc(C)c(NC(=O)c2cc(C(F)(F)F)nc3ccc(Br)cc23)c1C [Example 1520]
14,221,Cc1c(NC(=O)c2cc(C(N)=O)nc3cccc(F)c23)c(C(F)(F)F)nn1Cc1cc(F)ccc1C#N [Example 1654]
15,2.7,"Cc1c(NC(=O)c2cc(C(N)=O)nc3ccccc23)c(C#N)nn1Cc1ccc(F)cc1 [Example 308, N^4-[3-cyano-1-(4-fluorobenzyl)-5-methyl-1H-pyrazol-4-yl]quinoline-2,4-dicarboxamide]"
16,5.8,"Cc1nn(Cc2ccc(S(C)(=O)=O)cc2)c(C)c1NC(=O)c1cc(C(N)=O)nc2cc(F)c(F)cc12 [Example 231, N^4-{3,5-dimethyl-1-[4-(methylsulfonyl)benzyl]-1H-pyrazol-4-yl}-6,7-difluoroquinoline-2,4-dicarboxamide]"
17,1.8,"Cc1c(NC(=O)c2cc(C(N)=O)nc3cc(F)c(Cl)cc23)c(C(F)(F)F)nn1Cc1ccccc1C#N [Example 270, 6-chloro-N^4-[1-(2-cyanobenzyl)-5-methyl-3-(trifluoromethyl)-1H-pyrazol-4-yl]-7-fluoroquinoline-2,4-dicarboxamide]"
18,1280,Cc1c(NC(=O)c2cc(C(F)(F)F)nc3ccc(Br)cc23)c(C(=O)NCCO)nn1Cc1ccc(F)cc1 [Example 1235]

row,IC50 [nM],SMILES
1,41.4,Cc1nn(Cc2ccc(C(=O)NCCNC(=O)C3CC3)cc2)c(C)c1NC(=O)c1cc(C(F)(F)F)nc2ccc(Br)cc12 [Example 1098]
2,110,"Cc1nn(Cc2ccc(F)cc2)c(C)c1NC(=O)c1ccnc2ccc(Br)cc12 [Example 184, 6-bromo-N-[1-(4-fluorobenzyl)-3,5-dimethyl-1H-pyrazol-4-yl]quinoline-4-carboxamide]"
3,6250,COc1cc(C(=O)Nc2c(C)nn(Cc3cccc(C#N)c3)c2C)c2ccccc2n1 [Example 1286]
4,3,Cc1c(NC(=O)c2cc(C(N)=O)nc3cc(F)c(Cl)cc23)c(C(F)(F)F)nn1Cc1ccc(CC(F)(F)F)cc1 [Example 1716]
5,92.6,"Cc1nn(Cc2ccccc2)c(C)c1NC(=O)c1cc(C(F)(F)F)nc2c(Cl)cc(Cl)cc12 [Example 59, N-(1-benzyl-3,5-dimethyl-1H-pyrazol-4-yl)-6,8-dichloro-2-(trifluoromethyl)quinoline-4-carboxamide]"
6,40.9,CC(=O)c1cccc(Cn2nc(C)c(NC(=O)c3cc(C(N)=O)nc4cc(F)ccc34)c2C)c1 [Example 1625]
7,1320,Cc1cc(C(=O)Nc2c(C)nn(Cc3ccc(F)cc3)c2C)c2cc(C#N)ccc2n1 [Example 1237]
8,175,"Cc1nn(Cc2cccc(C#N)c2)c(C)c1NC(=O)c1cc(C(F)(F)F)nc2ccc(Br)cc12 [Example 71, 6-bromo-N-[1-(3-cyanobenzyl)-3,5-dimethyl-1H-pyrazol-4-yl]-2-(trifluoromethyl)quinoline-4-carboxamide]"
9,15.1,COc1cc(C(=O)Nc2c(C)nn(C(C)c3ccc(F)cc3)c2C)c2ccccc2n1 (stereo not drawn) [Example 1375]
10,462,"Cc1nn(Cc2ccc(F)cc2)c(C)c1NC(=O)c1cc(C(F)(F)F)nc2ccc(C#N)cc12 [Example 103, 6-cyano-N-[1-(4-fluorobenzyl)-3,5-dimethyl-1H-pyrazol-4-yl]-2-(trifluoromethyl)quinoline-4-carboxamide]"
11,123,"Cc1c(NC(=O)c2cc(C(N)=O)nc3cc(F)ccc23)c(C(F)(F)F)nn1Cc1ccc(C(=O)NCCO)cc1 [Example 375, 7-fluoro-N^4-[1-{4-[(2-hydroxyethyl)carbamoyl]benzyl}-5-methyl-3-(trifluoromethyl)-1H-pyrazol-4-yl]quinoline-2,4-dicarboxamide]"
12,1110,Cc1cc(C)n(CCn2nc(C)c(NC(=O)c3cc(C(F)(F)F)nc4ccc(Br)cc34)c2C)n1 [Example 1233]
13,25.8,Cc1nn(Cc2ccc(C(=O)NCC(F)F)cc2)c(C)c1NC(=O)c1cc(C(F)(F)F)nc2ccc(Br)cc12 [Example 1080]
14,131,"Cc1nn(Cc2ccn(C)n2)c(C)c1NC(=O)c1cc(C(F)(F)F)nc2ccc(Br)cc12 [Example 187, 6-bromo-N-{3,5-dimethyl-1-[(1-methyl-1H-pyrazol-3-yl)methyl]-1H-pyrazol-4-yl}-2-(trifluoromethyl)quinoline-4-carboxamide]"
15,188,COc1cc(C(=O)Nc2c(C)nn(CCOc3ccc(C#N)cc3)c2C)c2ccccc2n1 [Example 1348]
16,39.4,"Cc1nn(Cc2ccc(C#N)cc2)c(C(C)C)c1NC(=O)c1cc(C(N)=O)nc2ccccc12 [Example 323, N^4-[1-(4-cyanobenzyl)-5-isopropyl-3-methyl-1H-pyrazol-4-yl]quinoline-2,4-dicarboxamide]"
17,1,"COc1cc2c(C(=O)Nc3c(C(F)(F)F)nn(Cc4ccc(C#N)cc4)c3C)cc(C(N)=O)nc2cc1F [Example 242, N^4-[1-(4-cyanobenzyl)-5-methyl-3-(trifluoromethyl)-1H-pyrazol-4-yl]-7-fluoro-6-methoxyquinoline-2,4-dicarboxamide]"
18,3.5,CC(=O)c1ccc(Cn2nc(C)c(NC(=O)c3cc(C(N)=O)nc4ccccc34)c2C)cc1 [Example 1607]
